Measurements published in PubChem BioAssay AID248 (DTP/NCI, 2004).
Several values for one entry are separate records, joined by “and”; a condition that tells them apart may be missing. Equal entries are not always repeated. Toxic doses and inconclusive results are not listed.

Test system: L1210 leukemia ip in BDF1 mice, survival T/C
Experiment: NCI In Vivo Anticancer Drug Screen. Data for tumor model L1210 Leukemia (intraperitoneal) in B6D2F1 (BDF1) mice
Conditions: endpoint: mean survival time, higher = longer survival
Method in brief: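 Value reflects the ratio of survival in compound-treated mice to survival in vehicle-treated controls, with both groups carrying the same transplanted tumor.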

[1] = dose: 100.0 mg/kg/injection, schedule: Q01DX001 (ip), vehicle: Klucel (hydroxypropylcellulose) (HPC)
[2] = dose: 200.0 mg/kg/injection, schedule: Q01DX001 (ip), vehicle: Klucel (hydroxypropylcellulose) (HPC)
[3] = dose: 100.0 mg/kg/injection, schedule: Q04DX003 (ip), vehicle: saline with Tween-80
[4] = dose: 200.0 mg/kg/injection, schedule: Q04DX003 (ip), vehicle: saline with Tween-80
[5] = dose: 400.0 mg/kg/injection, schedule: Q04DX003 (ip), vehicle: saline with Tween-80
[6] = dose: 100.0 mg/kg/injection, schedule: Q01DX009 (ip), vehicle: saline with Tween-80
[7] = dose: 200.0 mg/kg/injection, schedule: Q01DX009 (ip), vehicle: saline with Tween-80
[8] = dose: 100.0 mg/kg/injection, schedule: Q01DX009 (ip), vehicle: Klucel (hydroxypropylcellulose) (HPC)
[9] = dose: 200.0 mg/kg/injection, schedule: Q01DX009 (ip), vehicle: Klucel (hydroxypropylcellulose) (HPC)
[10] = dose: 100.0 mg/kg/injection, schedule: Q04DX003 (ip), vehicle: Klucel (hydroxypropylcellulose) (HPC)
[11] = dose: 200.0 mg/kg/injection, schedule: Q04DX003 (ip), vehicle: Klucel (hydroxypropylcellulose) (HPC)
[12] = dose: 400.0 mg/kg/injection, schedule: Q01DX009 (ip), vehicle: Klucel (hydroxypropylcellulose) (HPC)
[13] = dose: 400.0 mg/kg/injection, schedule: Q04DX003 (ip), vehicle: Klucel (hydroxypropylcellulose) (HPC)
[14] = dose: 400.0 mg/kg/injection, schedule: Q01DX001 (ip), vehicle: Klucel (hydroxypropylcellulose) (HPC)

CN1CCCCC1C[CH2][Sn]([c]1ccccc1)([c]1ccccc1)[c]1ccccc1 (configuration not stated)
T/C (dose: 3.12 mg/kg/injection, schedule: Q01DX009 (ip), vehicle: Klucel (hydroxypropylcellulose) (HPC)): 90 % of control | T/C (dose: 6.25 mg/kg/injection, schedule: Q01DX009 (ip), vehicle: Klucel (hydroxypropylcellulose) (HPC)): 90 % of control | T/C (dose: 12.5 mg/kg/injection, schedule: Q01DX009 (ip), vehicle: Klucel (hydroxypropylcellulose) (HPC)): 92 % of control | T/C (dose: 12.5 mg/kg/injection, schedule: Q04DX002 (ip), vehicle: Klucel (hydroxypropylcellulose) (HPC)): 93 % of control | T/C (dose: 25.0 mg/kg/injection, schedule: Q04DX002 (ip), vehicle: Klucel (hydroxypropylcellulose) (HPC)): 96 % of control

NC(=O)N/N=C\C=N/NC(N)=O
T/C [1]: 92 % of control | T/C [2]: 92 % of control

Cn1nc(SCc2ccccc2)c(=O)[nH]c1=O
T/C (dose: 75.0 mg/kg/injection, schedule: Q01DX001 (ip), vehicle: saline): 97 % of control | T/C (dose: 150.0 mg/kg/injection, schedule: Q01DX001 (ip), vehicle: saline): 104 % of control

COC(OC)c1nc(N)nc(N)c1-c1ccc(F)cc1
T/C [3]: 94 % of control | T/C [4]: 96 % of control | T/C [5]: 96 % of control

CC1(C)N=C(N)Nc2nnc(-c3ccc(F)cc3)n21
T/C (dose: 100.0 mg/kg/injection, schedule: Q04DX003 (ip), vehicle: saline sonified): 89 % of control | T/C (dose: 200.0 mg/kg/injection, schedule: Q04DX003 (ip), vehicle: saline sonified): 101 % of control | T/C (dose: 400.0 mg/kg/injection, schedule: Q04DX003 (ip), vehicle: saline sonified): 89 % of control

CC(=O)Nc1ccc(/C=N/NC(=O)CC2CCCCC2)cc1
T/C [6]: 88 % of control | T/C [7]: 93 % of control | T/C (dose: 400.0 mg/kg/injection, schedule: Q01DX009 (ip), vehicle: saline with Tween-80): 100 % of control

O=C(O)CC12CCCCC1CCCC2 (configuration not stated)
T/C (dose: 100.0 mg/kg/injection, schedule: Q01DX009 (ip), vehicle: acetone): 94 % of control | T/C (dose: 200.0 mg/kg/injection, schedule: Q01DX009 (ip), vehicle: acetone): 100 % of control | T/C (dose: 400.0 mg/kg/injection, schedule: Q01DX009 (ip), vehicle: acetone): 94 % of control

COC(=O)/C=C1\Nc2ccc([N+](=O)[O-])cc2NC1=O
T/C (dose: 50.0 mg/kg/injection, schedule: Q01DX009 (ip), vehicle: Klucel (hydroxypropylcellulose) (HPC)): 87 % of control | T/C [8]: 94 % of control | T/C [9]: 100 % of control

CC(C)(Cl)/N=N/C(C)(C)Cl
T/C (dose: 25.0 mg/kg/injection, schedule: Q01DX001 (ip), vehicle: Klucel (hydroxypropylcellulose) (HPC)): 99 % of control | T/C (dose: 25.0 mg/kg/injection, schedule: Q04DX003 (ip), vehicle: Klucel (hydroxypropylcellulose) (HPC)): 98 % of control | T/C (dose: 50.0 mg/kg/injection, schedule: Q01DX001 (ip), vehicle: Klucel (hydroxypropylcellulose) (HPC)): 92 % of control | T/C (dose: 50.0 mg/kg/injection, schedule: Q04DX003 (ip), vehicle: Klucel (hydroxypropylcellulose) (HPC)): 97 % of control | T/C [1]: 94 % of control and 95 % of control | T/C [10]: 98 % of control

CCN(C(=O)COc1ccc(Cl)cc1)c1ccccc1C
T/C [8]: 102 % of control | T/C [10]: 101 % of control | T/C [9]: 107 % of control | T/C [11]: 97 % of control | T/C [12]: 116 % of control | T/C [13]: 98 % of control

Cc1c(C(N)=O)no[n+]1[O-]
T/C (dose: 100.0 mg/kg/injection, schedule: Q04DX002 (ip), vehicle: Klucel (hydroxypropylcellulose) (HPC)): 87 % of control | T/C (dose: 200.0 mg/kg/injection, schedule: Q04DX002 (ip), vehicle: Klucel (hydroxypropylcellulose) (HPC)): 109 % of control

COc1cc(NC(N)=O)cc(OC)c1OC
T/C (dose: 100.0 mg/kg/injection, schedule: Q01DX009 (ip), vehicle: saline sonified): 101 % of control | T/C [10]: 99 % of control | T/C (dose: 200.0 mg/kg/injection, schedule: Q01DX009 (ip), vehicle: saline sonified): 95 % of control | T/C [11]: 94 % of control | T/C (dose: 400.0 mg/kg/injection, schedule: Q01DX009 (ip), vehicle: saline sonified): 101 % of control | T/C [13]: 99 % of control

N#CCCn1c2ccccc2c2ccccc21
T/C (dose: 50.0 mg/kg/injection, schedule: Q01DX001 (ip), vehicle: saline): 96 % of control | T/C (dose: 50.0 mg/kg/injection, schedule: Q04DX002 (ip), vehicle: gum acacia): 91 % of control | T/C (dose: 100.0 mg/kg/injection, schedule: Q01DX001 (ip), vehicle: saline): 102 % of control | T/C (dose: 100.0 mg/kg/injection, schedule: Q04DX002 (ip), vehicle: gum acacia): 91 % of control | T/C (dose: 200.0 mg/kg/injection, schedule: Q01DX001 (ip), vehicle: saline): 102 % of control | T/C (dose: 200.0 mg/kg/injection, schedule: Q04DX002 (ip), vehicle: gum acacia): 98 % of control | T/C (dose: 400.0 mg/kg/injection, schedule: Q01DX001 (ip), vehicle: saline): 96 % of control

CS(=O)(=O)OC1C2(c3ccccc3)C=CCC1(c1ccccc1)C(c1ccccc1)=C2c1ccccc1 (configuration not stated)
T/C [1]: 98 % of control | T/C [2]: 101 % of control | T/C [14]: 98 % of control

C=C/C=C\N(CC)CC
T/C (dose: 6.25 mg/kg/injection, schedule: Q01DX009 (ip), vehicle: water): 98 % of control | T/C (dose: 12.5 mg/kg/injection, schedule: Q01DX009 (ip), vehicle: water): 97 % of control | T/C (dose: 25.0 mg/kg/injection, schedule: Q01DX009 (ip), vehicle: water): 104 % of control | T/C (dose: 25.0 mg/kg/injection, schedule: Q04DX003 (ip), vehicle: water): 95 % of control | T/C (dose: 50.0 mg/kg/injection, schedule: Q01DX009 (ip), vehicle: water): 98 % of control | T/C (dose: 50.0 mg/kg/injection, schedule: Q04DX003 (ip), vehicle: water): 88 % of control | T/C (dose: 100.0 mg/kg/injection, schedule: Q04DX003 (ip), vehicle: water): 100 % of control

O=C1C(Cl)=C(Nc2ccc(Br)cc2)C(=O)C(Cl)=C1Nc1ccc(Br)cc1
T/C (dose: 50.0 mg/kg/injection, schedule: Q01DX001 (ip), vehicle: carboxymethylcellulose (CMC)): 92 % of control | T/C (dose: 100.0 mg/kg/injection, schedule: Q01DX001 (ip), vehicle: carboxymethylcellulose (CMC)): 92 % of control | T/C [3]: 98 % of control | T/C (dose: 200.0 mg/kg/injection, schedule: Q01DX001 (ip), vehicle: carboxymethylcellulose (CMC)): 86 % of control | T/C [4]: 95 % of control | T/C (dose: 400.0 mg/kg/injection, schedule: Q01DX001 (ip), vehicle: carboxymethylcellulose (CMC)): 90 % of control | T/C [5]: 103 % of control

O=C(O)CSC1(SCC(=O)O)CCCCC1
T/C [1]: 103 % of control | T/C [2]: 97 % of control | T/C [14]: 97 % of control

CCCCCCCC/C=C\CCCCCCCC(=O)OCCCCCCCCCCCCCCCC
T/C [8]: 104 % of control | T/C [9]: 96 % of control | T/C [12]: 93 % of control

Cn1nnnc1/C(=C/c1ccccc1)C(=O)O
T/C [3]: 95 % of control | T/C [4]: 95 % of control | T/C [5]: 90 % of control

Nc1ccc(Cl)cc1N
T/C (dose: 90.0 mg/kg/injection, schedule: Q01DX001 (ip), vehicle: other): 100 % of control | T/C (dose: 90.0 mg/kg/injection, schedule: Q04DX003 (ip), vehicle: other): 97 % of control | T/C [6]: 104 % of control | T/C (dose: 100.0 mg/kg/injection, schedule: Q04DX002 (ip), vehicle: other): 107 % of control | T/C (dose: 175.0 mg/kg/injection, schedule: Q01DX001 (ip), vehicle: other): 105 % of control | T/C (dose: 175.0 mg/kg/injection, schedule: Q01DX009 (ip), vehicle: other): 111 % of control | T/C (dose: 175.0 mg/kg/injection, schedule: Q04DX003 (ip), vehicle: other): 100 % of control | T/C [7]: 114 % of control | T/C (dose: 200.0 mg/kg/injection, schedule: Q04DX002 (ip), vehicle: other): 107 % of control | T/C (dose: 265.0 mg/kg/injection, schedule: Q01DX001 (ip), vehicle: other): 99 % of control | T/C (dose: 265.0 mg/kg/injection, schedule: Q01DX009 (ip), vehicle: other): 151 % of control | T/C (dose: 265.0 mg/kg/injection, schedule: Q04DX003 (ip), vehicle: other): 106 % of control | T/C (dose: 400.0 mg/kg/injection, schedule: Q01DX001 (ip), vehicle: other): 110 % of control | T/C (dose: 400.0 mg/kg/injection, schedule: Q04DX002 (ip), vehicle: other): 114 % of control | T/C (dose: 400.0 mg/kg/injection, schedule: Q04DX003 (ip), vehicle: other): 104 % of control
